Experimental findings from patent US10149879B2 (priority 2014, dated 2018) are described below.

The structures appear in SMILES notation.

One assay has as its system L6 cells. Briefly: Anti-oxidant activity in L6 cells challenged with H2O2. Type of assay: cell-based. Details: Anti-oxidant activity, cells challenged with H2O2: unit not given here. The following applies: for Anti-oxidant activity, cells challenged with H2O2: L6; for protection against H2O2 induced cellular oxidative damage: L6 cells. From the text:
Anti-Oxidant Activity in L6 Cells Challenged with H2O2 Berberin and Palmatine
Anti-Oxidant Activity in L6 Cells Challenged with H2O2—Berberin and Quercetin

The test system of another assay is Adipocyte. Briefly: Reduction in hypertrophy of adipocyte. The following applies: H.G. animals; standard drug. Type of assay: in vivo, rats. On the procedure:
(§1) Before utilizing the test drug for human consumption the pre-clinical safety and efficacy profile of single plant candidate extract as well as in combined form was conducted following standard norms. The biological property of test formulation was validated in streptozotocin (STZ) induced diabetes animal model which also helped in evaluation of vascular complications caused due to diabetes. The effect of test drug was assessed on glucose levels, insulin level, glycosylated hemoglobin, and pro-inflammatory cytokines, and the most important bio-marker neopterin including various neuro-psychological assessments. The mechanism based study clearly indicated the neopterin decreasing potential of test formulation which exerted neuro-protective activity, better glycemic control, anti-atherosclerotic, anti-inflammatory, anti-oxidant effects in STZ induced diabetes among the animals. Further, its therapeutic activity has also been validated in neurogenic dementia and other cognitive deficits associated with diabetes mellitus. Reduction in hypertrophy of Adipocyte on Treated with Test Formulation

The subject of a further assay is F,1-6 bisphosphate. Briefly: Regulation of key enzymes in gluconeogenesis: F,1-6 bisphosphate. The format is in vivo, rats. Particulars: H.G. animals; standard drug. Here is the method:
as §1, with “mellitus.” for “mellitus. Reduction in hypertrophy of Adipocyte on Treated with Test Formulation”

For assay [1], the system named is streptozotocin (STZ) induced diabetes animal model. Briefly: Urine volume and glyceuira (Benedict reagent). Type of assay: in vivo, rats. Details: key to Glyceuria: (+++) abundant; (++) moderate; (+) mild; (−) complete absence. Particulars: H.G. animals; standard drug. On the procedure: as §1, with “mellitus.” for “mellitus. Reduction in hypertrophy of Adipocyte on Treated with Test Formulation”
Urine was collected from each group separately by using animal metabolic cage, volume of urine collected was measured and glucose executed in urine was detected by Benedict reagent. In which 1 ml of urine and 3 ml of B.R. are added and boiled for 5 minute. The change in color was observed as Red (+++), green coloration (++) yellow coloration (+) and unchanged (−).

In assay [2] the test system is SGOT, SGPT, ALP, ACP, LDH. Briefly: Hepato-protective effect (SGOT, SGPT, ALP, ACP, LDH). The format is in vivo, rats. The following applies: H.G. animals; standard drug. On the procedure: as §1, with “Hepato-Protective Effect” for “Reduction in hypertrophy”, “of” for “of Adipocyte on Treated with”
A further assay concerns Neopterin. Briefly: Neopterin decreasing property in experimental diabetes. The format is in vivo, rats. The following applies: H.G. animals, standard drug. On the procedure: as §1, with “mellitus.” for “mellitus. Reduction in hypertrophy of Adipocyte on Treated with Test Formulation”
Another assay relates to TBARS. Briefly: Attenuation of oxidative stress: TBARS formation. Type of assay: in vivo, rats. Details: TBARS formation, Brain / TBARS formation, Heart / TBARS formation, Liver / TBARS formation, Kidney: unit not given here. Particulars: H.G. animals; standard drug. On the procedure:
as §1, with “Attenuation” for “Reduction in hypertrophy”, “Oxidative Stress Following Treatment” for “Adipocyte on Treated”, “Formation—Reduction in TBARS Formation” for “Formulation”

The test system of a further assay is Creatinine, Urea. Briefly: Effect on renal function. Type of assay: in vivo, rats. The following applies: H.G. animals; standard drug. Here is the method:
as §1, with “Effect” for “Reduction in hypertrophy”, “of” for “of Adipocyte on Treated with”, “Formulation on Renal Function” for “Formulation”

Turning to `COc1ccc2cc3[n+](cc2c1OC)CCc1cc2c(cc1-3)OCO2` [Berberin], the “Anti-oxidant activity, cells challenged with H2O2” value (from here on “Anti-oxidant activity”) with L6 cells (Co-incubated, 10 pM, control 60.10) is 62.10 ± 4.40; with L6 cells (Co-incubated, 10 pg/ml, control 61.10), 60.40 ± 2.20; in the assay on L6 cells (Co-incubated, 100 pM, control 60.10), 63.97 ± 8.52; in the assay on L6 cells (Co-incubated, 100 pg/ml, control 61.10), 66.12 ± 2.70; with L6 cells (Co-incubated, 1 nM, control 60.10), 66.10 ± 5.67; with L6 cells (Co-incubated, 1 ng/ml, control 61.10), 70.07 ± 2.95. Also, the “Anti-oxidant activity” value with L6 cells (Co-incubated, 10 nM, control 60.10) worked out at 69.40 ± 5.00; in the assay on L6 cells (Co-incubated, 10 ng/ml, control 61.10), 75.14 ± 0.90; in the assay on L6 cells (Co-incubated, 100 nM, control 60.10), 72.40 ± 3.03; with L6 cells (Co-incubated, 100 ng/ml, control 61.10), 77.51 ± 1.70; with L6 cells (Pre-incubated, 10 pM, control 60.10), 59.80 ± 6.60; in the assay with L6 cells (Pre-incubated, 10 pg/ml, control 61.10), 63.50 ± 1.00. The “Anti-oxidant activity” value with L6 cells (Pre-incubated, 100 pM, control 60.10) was 60.40 ± 8.50; with L6 cells (Pre-incubated, 100 pg/ml, control 61.10), 69.40 ± 2.00; in the assay on L6 cells (Pre-incubated, 1 nM, control 60.10), 63.70 ± 7.25; in the assay with L6 cells (Pre-incubated, 1 ng/ml, control 61.10), 71.12 ± 1.12; in the assay with L6 cells (Pre-incubated, 10 nM, control 60.10) it was 68.60 ± 4.50; with L6 cells (Pre-incubated, 10 ng/ml, control 61.10) it was 78.98 ± 1.90. In addition, the “Anti-oxidant activity” value is given as 72.81 ± 5.70 in the assay on L6 cells (Pre-incubated, 100 nM, control 60.10) and 83.70 ± 1.70 with L6 cells (Pre-incubated, 100 ng/ml, control 61.10). The figures for the “protection against H2O2 induced cellular oxidative damage” value in the assay on L6 cells (comparison with positive standard) and in the assay with L6 cells (pM-nM doses) were “potent protection” and “mild protection”, respectively.
In the assay on Adipocyte, `CN(C)C(=N)N=C(N)N` [Metformin] returned an Adipocyte cell area of 146.24 ± 10.85 μm. In addition, in the assay on F,1-6 bisphosphate, the “F,1-6 bisphosphate, Kidney” value is 29.67 ± 5.60 μm/min/mg of protein and the “F,1-6 bisphosphate, Liver” value is reported as 34.59 ± 4.90 μm/min/mg of protein. Also, in assay [1], the Glyceuria result was “+” and the Urine volume worked out at 8.95 ± 1.70 mL. Further, in assay [2], the ACP was 12.05 ± 0.68 U/L, the ALP is recorded as 142.00 ± 6.00 U/L, the LDH amounted to 145.11 ± 15.00 U/L and the SGOT was determined as 60.00 ± 5.00 U/L. Moreover, the SGPT in assay [2] is 24.25 ± 2.12 U/L. Moreover, the Neopterin with Neopterin (7th day) came to 8.90 ± 1.87 nmol/L. The Neopterin in the assay on Neopterin (14th Day) was 9.11 ± 1.39 nmol/L. Also, in the assay with TBARS, the “TBARS formation, Brain” value is listed as 48.08 ± 3.42; the “TBARS formation, Heart” value amounted to 62.33 ± 4.81; the “TBARS formation, Kidney” value worked out at 56.74 ± 5.07; the “TBARS formation, Liver” value is 80.83 ± 9.17. In addition, in the assay with TBARS, the “TBARS formation, Pancrease” value is listed as 83.17 ± 7.24. In the assay with Creatinine, Urea, this compound had a Creatinine of 3.18 ± 0.05 mg/dL and a Urea of 45.45 ± 5.25 mg/dL.
With `CCc1ccc(CCOc2ccc(CC3SC(=O)NC3=O)cc2)nc1` (stereo not drawn) [Pioglitazone], the Adipocyte cell area in the assay on Adipocyte is recorded as 136.31 ± 13.53 μm. Also, in the assay with F,1-6 bisphosphate, the “F,1-6 bisphosphate, Kidney” value was 31.78 ± 3.71 μm/min/mg of protein and the “F,1-6 bisphosphate, Liver” value is given as 44.33 ± 4.29 μm/min/mg of protein. In addition, in assay [1], the Glyceuria result is “++” and the Urine volume worked out at 13.23 ± 1.18 mL. Besides, in assay [2], the ACP was 11.95 ± 1.00 U/L, the ALP worked out at 139.50 ± 3.15 U/L, the LDH was determined as 160.00 ± 15.00 U/L and the SGOT was determined as 72.00 ± 5.71 U/L. Moreover, in assay [2], the SGPT turned out to be 27.00 ± 3.00 U/L. Also, the Neopterin with Neopterin (7th day) stood at 9.13 ± 2.10 nmol/L. Moreover, the Neopterin with Neopterin (14th Day) worked out at 8.02 ± 2.01 nmol/L. Further, in the assay on TBARS, the “TBARS formation, Brain” value is recorded as 52.66 ± 3.55; the “TBARS formation, Heart” value is listed as 61.83 ± 4.52; the “TBARS formation, Kidney” value was 56.33 ± 7.93; the “TBARS formation, Liver” value is reported as 82.50 ± 2.84. For the same compound, the “TBARS formation, Pancrease” value with TBARS is reported as 87.67 ± 7.41. In the assay with Creatinine, Urea, this compound returned a Creatinine of 3.20 ± 0.09 mg/dL and a Urea of 48.00 ± 2.00 mg/dL.
